{
  "source": "patent US20250332180A1",
  "about": "“CANNABINOIDS AND IL-15 ACTIVATE NK CELLS” (The Regents of the University of California, priority 2022, published 2025)",
  "key": {"IFN-γ secretion": {"system": "IFN-γ secretion", "test": "IFN-γ secretion of immune cells in humanized BLT mice (ELISA, ELISpot)", "format": "in vivo", "details": "hu-BLT mice, every 2 days for 3 weeks; WIN 55,212-2 2 mg/kg IP; IL-15 5 μg/mice IP", "method": "(§1) Humanized BLT mice (hu-BLT; human-bone marrow/liver/thymus) were fed with, AJ2 (5×10^9 CFU/mice, every 2 days, Oral administration), WIN 55,212-2 (2 mg/kg, every 2 days, IP) and/or IL-15 (5 μg/mice, every 2 days, IP). After 3 weeks of treatment, immune cells were collected from peripheral blood, bone marrow and spleen, and CD3+ T cells were isolated from splenocytes with EasySep™ Human CD3 positive selection kit II (StemCell Tech.). PBMCs (0.5×10^6 cells) obtained from the peripheral blood were treated with IL-2 (1000 U/ml) and/or anti-CD16 antibody (BioLegend) (3 μg/ml) for 3 days, after which the cells were counted and different numbers of E:T ratios were used for the assessment of cytotoxicity using 4-hr Chromium release assay (FIG. 1A and FIG. 1B). The percentage specific cytotoxicity was calculated using the following formula (% cytotoxicity=(Experimental cpm/spontaneous cpm)/(total cpm−spontaneous cpm)) and the lytic unit 30 (Lu30/10^6) was calculated by using the inverse of the number of effector cells needed to lyse 30% of tumor target cells×100. Killing per % NK cells was determined by dividing the total Lytic unit 30 by the percentage of NK cells in each sample (FIG. 1A and FIG. 1B). PBMCs (0.5×10^6 cells) obtained from the blood were treated with IL-2 (1000 U/ml) and/or anti-CD16 antibody (BioLegend) (3 μg/ml) for 24 hours, after which the supernatants were collected to measure IFN-g secretion using ELISA (BioLegend, San Diego) (FIG. 1C). ELISpot was used to determine the IFN-γ spots in PBMC (FIG. 1D), bone marrow (FIG. 1E), spleen (FIG. 1F) and CD3+ T cells (FIG. 1G).\nHumanized BLT mice (hu-BLT; human-bone marrow/liver/thymus) were fed with, AJ2 (5×10^9 CFU/mice, every 2 days, Oral administration), WIN 55,212-2 (2 mg/kg, every 2 days, IP) and/or IL-15 (5 μg/mice, every 2 days, IP). After 3 weeks of treatment, immune cells were collected from peripheral blood, bone marrow and spleen, and CD3+ T cells were isolated from splenocytes with EasySep™ Human CD3 positive selection kit II (StemCell Tech.). PBMCs (0.5×10^6 cells) obtained from the peripheral blood were treated with IL-2 (1000 U/ml) and/or anti-CD16 antibody (BioLegend) (3 μg/ml) for 3 days, after which the cells were counted and different numbers of E:T ratios were used for the assessment of cytotoxicity using 4-hr Chromium release assay (FIG. 6A and FIG. 6B). The percentage specific cytotoxicity was calculated using the following formula (% cytotoxicity=(Experimental cpm/spontaneous cpm)/(total cpm−spontaneous cpm)) and the lytic unit 30 (Lu30/10^6) was calculated by using the inverse of the number of effector cells needed to lyse 30% of tumor target cells×100. Killing per % NK cells was determined by dividing the total Lytic unit 30 by the percentage of NK cells in each sample (FIG. 6A and FIG. 6B). PBMCs (0.5×10^6 cells) obtained from the blood were treated with IL-2 (1000 U/ml) and/or anti-CD16 antibody (BioLegend) (3 μg/ml) for 24 hours, after which the supernatants were collected to measure IFN-g secretion using ELISA (BioLegend, San Diego) (FIG. 6C). ELISpot was used to determine the IFN-γ spots in PBMC (FIG. 6D), bone marrow (FIG. 6E), spleen (FIG. 6F) and CD3+ T cells (FIG. 6G)."}, "NK cells": {"system": "NK cells", "test": "NK cell cytotoxicity in humanized BLT mice (4-hr Chromium release assay)", "format": "in vivo", "details": "hu-BLT mice, every 2 days for 3 weeks; WIN 55,212-2 2 mg/kg IP; IL-15 5 μg/mice IP; preliminary experiments", "method": "as §1, with “PBMCs (0.5×10^6 cells) obtained from the blood were treated with IL-2 (1000 U/ml) and/or anti-CD16 antibody (BioLegend) (3 μg/ml) for 24 hours, after which the supernatants were collected to measure IFN-g secretion using ELISA (BioLegend, San Diego) (FIG. 1C). ELISpot was used to determine the IFN-γ spots in PBMC (FIG. 1D), bone marrow (FIG. 1E), spleen (FIG. 1F) and CD3+ T cells (FIG. 1G).” left out"}, "[1]": {"system": "anti-proliferative effects of radiation therapy", "details": "previously reported; cited from earlier work"}, "PL-12 tumor cells [2]": {"system": "PL-12 tumor cells", "test": "Cell death assay (PI staining, flow cytometry)", "format": "cell-based, human", "details": "CDDP"}, "OSCSCs": {"system": "OSCSCs", "test": "Microscopy of morphology and viability", "format": "cell-based, human", "details": "CDDP 50 μg/mL, 24 h", "method": "(§2) Chemical structure of WIN 55,212-2 (FIG. 7A). […] OSCCs and OSCSCs were treated with CDDP (50 μg/mL) and different concentrations of WIN 55,212-2 for 24 hours before the microscopic images were taken. Scale bar=50 μm (FIG. 7B)."}, "OSCCs [3]": {"system": "OSCCs", "test": "Microscopy of morphology and viability", "format": "cell-based, human", "details": "CDDP 50 μg/mL, 24 h", "method": "as §2"}, "OSCCs [4]": {"system": "OSCCs", "test": "Cell death assay (PI staining, flow cytometry)", "format": "cell-based, human", "details": "CDDP 50 μg/mL, 24 hours", "method": "No differences between untreated tumor cells and those treated with the DMSO vehicle alone in cell count or the amount of cell death in OSCCs and OSCSCs. […] Proportion of the live cells that had lost forward and side scatter were determined indicating decreased viability of the cells. In addition, the numbers of viable cells were determined after PI staining followed by flow cytometric analysis (FIG. 2A). OSCC tumor cells were treated as in FIG. 2A and the cells were analyzed by flow cytometry to determine the proportion of the live cells that had lost forward and side scatter indicating decreased viability of the cells (FIG. 2B) and the numbers of viable OSCC tumor cells were determined after PI staining followed by flow cytometric analysis (FIG. 2C). […] PI staining was used to determine the cell death by flow cytometry. One of four representative experiment is shown in (FIG. 2D). The compiled data of paired OSCCs and OSCSCs at the same concentration of WIN 55,212-2 treatment from four experiments is shown in (FIG. 2E). Four experiments were compiled and the % cell death of tumor cells by various WIN 55-212,2 concentrations (10, 25, 50 and 100 μM) were compared to the untreated control for both OSCC (FIG. 2F) and OSCSC (FIG. 2G). […] Non-linear regression was used to fit the curve of the % cell death induced by WIN 55-212,2 in various concentrations (10, 25, 50 and 100 μM) for both OSCC and OSCSC. […] The differences were clear within each independent experiment.\nPI staining was used to determine the cell death by flow cytometry. Compiled data from four independent experiments performed is shown."}, "PL-12 tumor cells [5]": {"system": "PL-12 tumor cells", "test": "Microscopy of morphology and viability", "format": "cell-based, human", "details": "CDDP 50 μg/mL, 24 hours", "method": "(§3) MP2 and PL-12 tumor cells were treated with CDDP (50 μg/mL) and different concentrations of WIN 55,212-2 for 24 hours before the microscopic images were taken. Scale bar=50 μm."}, "MP2 tumor cells": {"system": "MP2 tumor cells", "test": "Microscopy of morphology and viability", "format": "cell-based, human", "details": "CDDP 50 μg/mL, 24 hours", "method": "as §3"}, "OSCCs [6]": {"system": "OSCCs", "test": "Cell count of viable cells (Trypan Blue, light microscope)", "format": "cell-based, human", "details": "CDDP 50 μg/mL, 24 hours", "excerpt": "The number of viable cells was counted under light microscope using Trypan Blue staining. Compiled data from three independent experiments performed as shown.\nThe number of viable cells was counted under light microscope using Trypan Blue staining (Sigma, MO, USA)."}},
  "data": [
    {"compound": "IL-15: IL-15, given by intraperitoneal injection 5 μg/mice", "values": [
      {"measurement": "IFN-γ secretion (ELISA, PBMCs)", "setting": "IFN-γ secretion", "result": "increased"},
      {"measurement": "cytotoxic function of NK cells in PBMC", "setting": "NK cells", "result": "increased the NK cytotoxicity"}
    ]},
    {"compound": "CCCCCc1cc(O)c2c(c1)OC(C)(C)[C@@H]1CCC(C)=C[C@@H]21", "note": "[THC, tetrahydrocannabinol]", "values": [
      {"measurement": "enhancement of anti-proliferative effects of radiation therapy", "setting": "[1]", "result": "failed to enhance"}
    ]},
    {"compound": "C=C(C)[C@@H]1CCC(C)=C[C@H]1c1c(O)cc(CCCCC)cc1O", "note": "[CBD]", "values": [
      {"measurement": "enhancement of anti-proliferative effects of radiation therapy", "setting": "[1]", "result": "failed to enhance"}
    ]},
    {"compound": "CCCCCCC(C)(C)c1cc(O)c2c(c1)OC(C)(C)C1CCC(=O)CC21", "note": "(stereo not shown) [nabilone]", "values": [
      {"measurement": "enhancement of anti-proliferative effects of radiation therapy", "setting": "[1]", "result": "failed to enhance"}
    ]},
    {"compound": "N.N.[Cl][Pt][Cl]", "note": "[CDDP, cis-diamminedichloridoplatinum(II)]", "values": [
      {"measurement": "cell death, PL-12 compared with MP2", "setting": "PL-12 tumor cells [2]; compiled data", "result": "similar"},
      {"measurement": "cell death, PL-12 compared with MP2", "setting": "PL-12 tumor cells [2]; representative experiment", "result": "higher in PL-12"},
      {"measurement": "morphology and attachment", "setting": "OSCSCs", "result": "the majority of these cells were still attached to the cell culture plate"},
      {"measurement": "morphology and attachment", "setting": "OSCCs [3]", "result": "loss of morphology, and the majority were detached from the plates"},
      {"measurement": "cell death, OSCCs compared with OSCSCs", "setting": "OSCCs [4]", "result": "triggered more cell death in OSCCs when compared to OSCSCs"},
      {"measurement": "morphology", "setting": "PL-12 tumor cells [5]", "result": "affected both PL-12 and MP2 tumors morphologically"},
      {"measurement": "morphology", "setting": "MP2 tumor cells", "result": "affected both PL-12 and MP2 tumors morphologically"},
      {"measurement": "inhibition of cell growth, OSCCs compared with OSCSCs", "setting": "OSCCs [6]", "result": "inhibit cell growth of OSCCs more than those seen with OSCSCs"}
    ]}
  ]
}
